{
  "source": "patent US20130109643A1",
  "about": "“METABOLIC INHIBITOR AGAINST TUMORS HAVING AN IDH MUTATION” (The Johns Hopkins University, priority 2010, published 2013)",
  "key": {"[1]": {"tested_on": "D54 glioblastoma cells overexpressing WT or R132H IDH1", "experiment": "alamarBlue cell growth assay, D54 glioblastoma lines overexpressing WT or R132H IDH1", "type": "cell-based, human", "description": "(§1) Standard techniques were used to introduce the R132H mutation into human IDH1 engineered with a 6×-His-tag and produce lentivirus containing either WT or mutant IDH1. D54 cells or transformed normal human astrocytes (TNA) were transduced with virus, and lines were grown from individual cells using limiting dilution. IDH1 expression in response to […] doxycycline was confirmed using a 6×-His tag antibody (Millipore). Liquid chromatography/mass spectrometry was conducted as previously described. Dang L., et al., Cancer-associated IDH1 mutations produce 2-hydroxyglutarate. Nature 2009; 462:739-44. siRNA was used to knock down glutaminase, and cells were assessed for knockdown using Western blotting. Gao P., et al., c-Myc suppression of miR-23a/b enhances mitochondria/glutaminase expression and glutamine metabolism. Nature 2009; 458:762-5. Cell growth assays using alamarBlue were carried out as described following DMSO or bis-2-(5-phenylacetamido-1,2,4-thiadiazol-2-yl)ethyl sulfide (BPTES) treatment. Liolome W., et al., Glioblastoma cell growth is suppressed by disruption of Fibroblast Growth Factor pathway signaling. J Neurooncol 2009:94:359-66. […] [3H]-glutamate was isolated from the reaction mixture using anion exchange and measured using a scintillation counter. […] Data were evaluated using a two-tailed Student's t-test. P≦0.05 was considered significant.\nD54 or TNA cells were transduced with virus containing WT or R132H IDH1. D54 cells were transduced using virus containing pLVCT-tTR-KRAB constructs, and TNA were transduced with virus containing Duet011 constructs. Lines were grown from individual cells using limiting dilution and tested for IDH1 expression. Expression was confirmed using Western blot and 6×-His-tag antibodies (Millipore). 0.04 μg/mL doxycycline was used to induce expression for D54 lines. Cells were maintained in DMEM, 10% FBS, 4.5 g/L glucose, and penicillin/streptomycin. Transformed normal human astrocytes (TNA) were a gift from Christopher M. Counter.\nCell growth assays using alamarBlue were carried out as described. Loilome W., et al., Glioblastoma cell growth is suppressed by disruption of Fibroblast Growth Factor pathway signaling. J Neurooncol 2009; 94(3):359-66. Cells were plated at a density of 500 cells/well in a 96-well black clear bottom plate (Becton Dickinson)."}, "[2]": {"tested_on": "transformed normal human astrocytes (TNA) overexpressing R132H or WT IDH1", "experiment": "alamarBlue cell growth assay, transformed normal human astrocytes (TNA) expressing WT or R132H IDH1", "type": "cell-based", "conditions": "48 hours", "description": "as §1, with “significant. […]” for “significant.”"}, "mutant IDH1 cells [3]": {"tested_on": "mutant IDH1 cells", "experiment": "Caspase 3/7 activation assay (Caspase-Glo 3/7)", "type": "cell-based, human", "conditions": "10 μM BPTES, 24 hrs, vs DMSO", "description": "Cells were plated at a density of 5000 cells/well in a 96-well black clear bottom plate (Becton Dickinson). 24 hrs after plating, media was changed to fresh media with or without 0.04 μg/mL doxycycline."}, "mutant IDH1 cells [4]": {"tested_on": "mutant IDH1 cells", "experiment": "Annexin V staining (flow cytometry)", "type": "cell-based, human", "conditions": "10 μM BPTES, 24 hrs, vs DMSO", "description": "Cells were plated at a density of 2×10^5 cells/well in a 6-well plate. Media was changed to media with or without doxycyline 24 hrs after plating."}, "[5]": {"tested_on": "D54 cells overexpressing WT or R132H IDH1", "experiment": "LC/MS metabolite levels in WT and mutant IDH1 D54 cells", "type": "cell-based, human", "conditions": "10 mmol/L BPTES, 48 hours", "description": "as §1\n3×10^5 (untreated) or 7.5×10^5 (BPTES-treated) cells were seeded in a T75 flask. 24 hrs post-plating, media on the cells was changed to 4.5 g/L glucose, 10% HyClone dialyzed FBS (ThermoScientific), penicillin/streptomycin, 4 mM glutamine and 0.04 μg/mL doxycycline to induce IDH1 expression. […] Metabolites were measured in one of two ways: using a reverse phase column with tributylamine as an ion pairing agent, Luo B., et al., Simultaneous determination of multiple intracellular metabolites in glycolysis, pentose phosphate pathway and tricarboxylic acid cycle by liquid chromatography-mass spectrometry. J Chromatogr 2007; 1147(2):153-64, coupled to a Thermo Exactive Mass Spectrometer operating at 100,000 resolving power using a mass range of ±5 ppm or single reaction monitoring on a Thermo TSQ Quantum Triple Quadrupole Mass Spectrometer coupled to an aminopropyl HPLC column. Bajad S. U., et al., Separation and quantitation of water soluble cellular metabolites by hydrophilic interaction chromatography-tandem mass spectrometry. J Chromatogr 2006; 1125(1):76-88. Signals were normalized to cell number prior to data analysis."}, "[6]": {"tested_on": "primary acute myelogenous leukemia (AML) cells with mutant or wild-type IDH1", "experiment": "Growth curves of primary AML cells (trypan blue counting)", "type": "cell-based, human", "conditions": "BPTES at 20 or 40 μM vs DMSO vehicle", "description": "Primary AML cells were cultured in RPMI-1640 media with 20% fetal bovine serum (FBS), 20% 5637 cell-conditioned media and 1% antibiotics as previously described (Miyauchi et al., 1987). Growth curves were generated by manual counting of viable cells as assessed by trypan blue exclusion on a hemocytometer. The detail of the procedure is as following: (1) The frozen cells are thawed and added into 10 mL of the media in a tissue culture flask and grown in a humidified incubator at 37° C. and 5% CO2 for 4-5 days. Cells were counted every 24-48 h to estimate the cells needed for the experiment. […] Then, 10-20 mL media containing each desired concentration of the drug were prepared. […] By doing this, the concentration of DMSO is constant and not more than 0.1%. BPTES is precipitated in PBS, so avoid dilution with PBS. […] When the cells were well homogenized, they were counted by 1:1 trypan blue exclusion with hemocytometer. […] The starting number for each cell line among control/DMSO/drug must be the same and is calculated based on the count from the cell-containing PBS solution. […] (6) Cells were counted every other day using a hemocytometer after staining with trypan blue (1:1). […] Cells were counted in the 4 outer squares of the hemocytometer, and the number was divided by 2 (=n). […] When cell concentration was low, more grids were counted and the cell concentrations were calculated accordingly."}},
  "data": [
    {"smiles": "O=C(Cc1ccccc1)Nc1nnc(CCSCCc2nnc(NC(=O)Cc3ccccc3)s2)s1", "note": "[BPTES]", "values": [
      {"measurement": "effect on growth, mutant vs WT IDH1 cells", "setting": "[1]; D54+R132H compared with D54 and D54+WT IDH1, 48 hours", "result": "preferentially slowed growth of mutant IDH1 cells"},
      {"measurement": "growth reduction", "setting": "[1]; mutant IDH1 D54 cells, 48 hours", "result": "about 20%"},
      {"measurement": "sensitivity of growth, mutant vs WT IDH1 cells", "setting": "[2]", "result": "mutant IDH1 cells also were more sensitive"},
      {"measurement": "Caspase 3/7 induction", "setting": "mutant IDH1 cells [3]", "result": "does not increase"},
      {"measurement": "Annexin V staining", "setting": "mutant IDH1 cells [4]", "result": "does not increase"},
      {"measurement": "levels of glycolytic intermediates (fructose-1,6-bisphosphate, dihydroxy-acetone-phosphate, 3-phosphoglycerate)", "setting": "[5]", "result": "increased"},
      {"measurement": "tricarboxylic acid cycle intermediates (succinate and malate) and aspartate levels", "setting": "[5]", "result": "decreases"},
      {"measurement": "citrate levels", "setting": "[5]; WT IDH1 cells", "result": "decreased"},
      {"measurement": "glutamate levels", "setting": "[5]; WT and mutant IDH1 cells", "result": "diminished"},
      {"measurement": "α-KG levels", "setting": "[5]; WT and mutant IDH1 cells", "result": "diminished"},
      {"measurement": "citrate levels", "setting": "[5]; mutant IDH1 cells", "result": "increased"},
      {"measurement": "2-HG levels", "setting": "[5]; treated mutant IDH1 cells", "result": "remained unchanged"},
      {"measurement": "cell killing, mIDH1 vs wild-type AML cells", "setting": "[6]", "result": "selectively kills"}
    ]},
    {"smiles": "O=C(O[C@@H]1Cc2c(O)cc(O)cc2O[C@@H]1c1cc(O)c(O)c(O)c1)c1cc(O)c(O)c(O)c1", "note": "[EGCG, epigallocatechin gallate]", "values": [
      {"measurement": "sensitivity of growth, mutant vs WT IDH1 cells", "setting": "[1]; EGCG, 0.1 g/L glucose, 72 hrs", "result": "more sensitive"}
    ]},
    {"smiles": "COC(=O)CCC(=O)C(=O)OC", "note": "[dimethyl-α-ketoglutarate]", "values": [
      {"measurement": "rescue of BPTES growth inhibition at higher BPTES concentrations", "setting": "[1]; 1 mmol/L dimethyl-α-ketoglutarate, 50 or 100 mmol/L BPTES", "result": "not blocked"},
      {"measurement": "rescue of BPTES growth inhibition", "setting": "[1]; mutant IDH1 cells, 1 mmol/L dimethyl-α-ketoglutarate added to BPTES", "result": "significantly reduced growth inhibition"}
    ]},
    {"smiles": "NOCC(=O)O", "note": "[AOA, amino-oxyacetic acid]", "values": [
      {"measurement": "sensitivity of growth, mutant vs WT IDH1 cells", "setting": "[1]; AOA, 1.5 g/L glucose, 48 hrs", "result": "more sensitive"}
    ]}
  ]
}
